Assay results published in patent US20160038468A1 (priority 2013, published 2016).
Where two headings read alike, the source gives them in different places.

Columns and labels:
Format in all cases: cell-based
Prevotella timonensis = test: Agar dilution MIC (CLSI), Prevotella timonensis vaginal isolates
Peptoniphilus harei = test: Agar dilution MIC (CLSI), Peptoniphilus harei vaginal isolates; details: for MIC: read-out: Minimal Inhibitory Concentration (MIC)
Atopobium vaginae = test: Agar dilution MIC (CLSI), Atopobium vaginae vaginal isolates; details: for Number of strains with indicated MIC: 62 samples
M. curtisii = test: Agar dilution MIC (CLSI), M. curtisii vaginal isolates; details: for Number of strains with indicated MIC: 14 samples; for MIC: read-out: Minimal Inhibitory Concentration (MIC)
Peptoniphilus lacrimalis = test: Agar dilution MIC (CLSI), Peptoniphilus lacrimalis vaginal isolates; details: for Number of strains with indicated MIC: 20 samples; for MIC: read-out: Minimal Inhibitory Concentration (MIC)
[1] = Peptoniphilus harei, # tested 23
[2] = Fannyhessea vaginae, # tested 62
[3] = Peptoniphilus lacrimalis, # tested 20

CCC[C@@H]1C[C@@H](C(=O)N[C@@H]([C@H]2O[C@H](SC)[C@H](O)[C@@H](O)[C@H]2O)[C@H](C)Cl)N(C)C1 [Clindamycin]
2 (9) μg/ml: Resistant (Peptoniphilus harei; number (%) of isolates, # tested 23, resistance: rifaximin >32, metronidazole >32, clindamycin >8 μg/ml)
64 µg/mL: MIC (M. curtisii; individual isolates recovered from the vagina 2009-2012, one line per isolate (id in c0/c1 of the row))
10: Number of strains with indicated MIC (Atopobium vaginae; MIC 0.06 μg/ml)
19 (58) μg/ml: Susceptible (Prevotella timonensis; number (%) of isolates, # tested 33)
128 µg/mL: MIC (Peptoniphilus lacrimalis; Peptoniphilus lacrimalis, isolate 601028V 27A) | MIC (Peptoniphilus lacrimalis; Peptoniphilus lacrimalis, isolate 601139V 17)
0.06 µg/mL: MIC50 (Atopobium vaginae; [2]) | MIC (Peptoniphilus lacrimalis; Peptoniphilus lacrimalis, isolate 601105V 13)
0.125 µg/mL: MIC (Peptoniphilus harei; Peptoniphilus harei, isolate 601311V R) | MIC (Peptoniphilus harei; Peptoniphilus harei, isolate 601342V F) | MIC (Peptoniphilus harei; Peptoniphilus harei, isolate 601365V 14) | MIC (Peptoniphilus harei; Peptoniphilus harei, isolate 601426V D) | MIC (Peptoniphilus harei; Peptoniphilus harei, isolate 601430V 22) | MIC (Peptoniphilus lacrimalis; Peptoniphilus lacrimalis, isolate 601060V 32A) | MIC (Peptoniphilus lacrimalis; Peptoniphilus lacrimalis, isolate 601078V O) | MIC (Peptoniphilus lacrimalis; Peptoniphilus lacrimalis, isolate 601084V c) | MIC (Peptoniphilus lacrimalis; Peptoniphilus lacrimalis, isolate 601365V 13)
1 µg/mL: MIC (Peptoniphilus harei; Peptoniphilus harei, isolate 601098V Q) | MIC (Peptoniphilus harei; Peptoniphilus harei, isolate 601212V 15) | MIC (Peptoniphilus harei; Peptoniphilus harei, isolate 601259V 11) | MIC (Peptoniphilus harei; Peptoniphilus harei, isolate 601289V C) | MIC (Peptoniphilus harei; Peptoniphilus harei, isolate 601326V F) | MIC90 (Peptoniphilus harei; [1])
3: Number of strains with indicated MIC (M. curtisii; MIC 0.06 μg/ml) | Number of strains with indicated MIC (Peptoniphilus lacrimalis; MIC >[…])
0.5 µg/mL: MIC (Peptoniphilus harei; Peptoniphilus harei, isolate 601248V 23) | MIC (Peptoniphilus harei; Peptoniphilus harei, isolate 601302V F1) | MIC (Peptoniphilus harei; Peptoniphilus harei, isolate 601374V F) | MIC (Peptoniphilus harei; Peptoniphilus harei, isolate 601388V Q) | MIC50 (Peptoniphilus harei; [1])
6 (30) μg/ml: Resistant (Peptoniphilus lacrimalis; number (%) of isolates, # tested 20, resistance: rifaximin >32, metronidazole >32, clindamycin >8 μg/ml)
2: Number of strains with indicated MIC (Peptoniphilus harei; MIC >[…], 23 samples)
8 µg/mL: MIC (Peptoniphilus lacrimalis; Peptoniphilus lacrimalis, isolate 601318V E)
14 (42) μg/ml: Resistant (Prevotella timonensis; number (%) of isolates, # tested 33, resistance: rifaximin >32, metronidazole >32, clindamycin >8 μg/ml)
21 (91) μg/ml: Susceptible (Peptoniphilus harei; number (%) of isolates, # tested 23)
28: Number of strains with indicated MIC (Atopobium vaginae; MIC 0.03 μg/ml)
>128 µg/mL: Minimal Inhibitory Concentration (MIC) (Prevotella timonensis; isolate 601367 E) | Minimal Inhibitory Concentration (MIC) (Prevotella timonensis; isolate 601370 13) | Minimal Inhibitory Concentration (MIC) (Prevotella timonensis; isolate 601401 J) | Minimal Inhibitory Concentration (MIC) (Prevotella timonensis; isolate 601411 S) | Minimal Inhibitory Concentration (MIC) (Prevotella timonensis; isolate 601414 O) | Minimal Inhibitory Concentration (MIC) (Prevotella timonensis; isolate 601422 39) | Minimal Inhibitory Concentration (MIC) (Peptoniphilus harei; isolate 426868V D) | Minimal Inhibitory Concentration (MIC) (Peptoniphilus lacrimalis; isolate 601261V O) | Minimal Inhibitory Concentration (MIC) (Peptoniphilus lacrimalis; isolate 601296V N)
0.25 µg/mL: MIC (Peptoniphilus harei; Peptoniphilus harei, isolate 601203V 8) | MIC (Peptoniphilus harei; Peptoniphilus harei, isolate 601293V 21) | MIC (Peptoniphilus harei; Peptoniphilus harei, isolate 601355V D) | MIC (Peptoniphilus harei; Peptoniphilus harei, isolate 601399V 16) | MIC (Peptoniphilus harei; Peptoniphilus harei, isolate 601409V L) | MIC (Peptoniphilus harei; Peptoniphilus harei, isolate 601413V 16) | MIC (Peptoniphilus harei; Peptoniphilus harei, isolate 601539V 25B) | MIC90 (Atopobium vaginae; [2]) | MIC (Peptoniphilus lacrimalis; Peptoniphilus lacrimalis, isolate 601255V 12) | MIC (Peptoniphilus lacrimalis; Peptoniphilus lacrimalis, isolate 601293V 15) | MIC (Peptoniphilus lacrimalis; Peptoniphilus lacrimalis, isolate 601305V K-1) | MIC (Peptoniphilus lacrimalis; Peptoniphilus lacrimalis, isolate 601330V H) | MIC (Peptoniphilus lacrimalis; Peptoniphilus lacrimalis, isolate 601336V 47) | MIC (Peptoniphilus lacrimalis; Peptoniphilus lacrimalis, isolate 601368V 39) | MIC (Peptoniphilus lacrimalis; Peptoniphilus lacrimalis, isolate 601375V E) | MIC (Peptoniphilus lacrimalis; Peptoniphilus lacrimalis, isolate 601388V B) | MIC (Peptoniphilus lacrimalis; Peptoniphilus lacrimalis, isolate 601401V I) | MIC50 (Peptoniphilus lacrimalis; [3])
14 (70) μg/ml: Susceptible (Peptoniphilus lacrimalis; number (%) of isolates, # tested 20)
> 128 µg/mL: MIC (Peptoniphilus harei; Peptoniphilus harei) | MIC (Atopobium vaginae; Fannyhessea vaginae, read-out: Minimal Inhibitory Concentration (MIC)) | MIC (M. curtisii) | MIC (Peptoniphilus lacrimalis; Peptoniphilus lacrimalis) | MIC90 (Peptoniphilus lacrimalis; [3])
1: Number of strains with indicated MIC (Atopobium vaginae; MIC 8 μg/ml) | Number of strains with indicated MIC (Atopobium vaginae; MIC 16 μg/ml) | Number of strains with indicated MIC (Atopobium vaginae; MIC >[…]) | Number of strains with indicated MIC (Atopobium vaginae; MIC […] μg/ml) | Number of strains with indicated MIC (M. curtisii; MIC 32 μg/ml) | Number of strains with indicated MIC (M. curtisii; MIC >[…]) | Number of strains with indicated MIC (Peptoniphilus lacrimalis; MIC 0.06 μg/ml) | Number of strains with indicated MIC (Peptoniphilus lacrimalis; MIC 8 μg/ml)
